Assay results reported in patent US6835846B2, “Aliphatic compounds, process for their preparation and their usage” (Maruha Corporation, priority 2000, dated 2004).

What was measured:
Edg receptors = test: Competition experiments using ^3H-AHOP on HL60 cells; assay type: binding; conditions: for competition with ^3H-AHOP: HL60 cells, ^3H-AHOP 1 nM, unlabeled compound 10 nM, 30 nM or 100 nM, 30 minutes at 4° C.; for inhibition of binding of ^3H-AHOP (to HL60 cells): compound 1 nM, 3 nM and 10 nM, FIG. 2
Description: The same premyeloblastoma cell strain HL60 expressing Edg receptors on the cell surface as used in Example 4 was used. The cells were harvested by centrifugation, then suspended in an F-12 culture medium (stored at 4° C., 10 ml), and carried into an RI laboratory. ^3H-AHOP (15 μCi/1 nM) at an end concentration of 1 nM, and an unlabeled compound (the compound of Example 2 or Example 3) at an end concentration of 10 nM, 30 nM or 100 nM were each added to 200 μl of the cell suspension (1×10^6 cells/ml F-12), and a binding test was conducted for 30 minutes at 4° C. (with occasional stirring). After centrifugation for 7 minutes at 12,000 rpm, the supernatant was rapidly (without damaging cell pellets) discarded with a micropipetter. The cell pellets were suspended in 1.5 ml of Ready Safe (Beckman), whereafter the suspension was transferred into a vial and measured for radioactivity by a liquid scintillation counter L2100 (Beckman).
The compounds of Example 2 and Example 3 were subjected to the same competition experiments as described above, except that they were added at concentrations of 1 nM, 3 nM and 10 nM.

[1] = tested on: vascular smooth muscle cells; test: Action on vascular smooth muscle growth (BrdU assay); assay type: cell-based; conditions: rat vascular smooth muscle cells, sphingosylphosphorylcholine 10 μM, 24 hours, FIG. 3
Description: Thus, the actions of the compounds of Examples 2 and 3 on the growth of vascular smooth muscle cells were measured in the manner described below. Suramin confirmed to have Edg receptor antagonism was used as a positive control.
The rat carotid intima was rubbed by ballooning, and a tissue fragment was cultured by explant culture. Two weeks later, vascular smooth muscle cells harvested were cultured in a DMEM culture medium (Gibco) containing 10% fetal bovine serum. The cultures were subcultured several times for stabilization, whereafter the subcultures were seeded at a cell density of 5×10^3 cells/cm^2 for use in experiments.
Along with the growth factor sphingosylphosphorylcholine (10 μM), the compound of Example 2 or 3, or suramin was added to the cells, and 24 hours later, the cell density was measured by BrdU assay (Science '82, 218, p. 474, Cytometry '85, 6, p. 584).

[2] = tested on: myocardial infarction due to reperfusion following ligation of the rabbit coronary artery; test: Ligation-associated myocardial infarction model; assay type: in vivo
Description: The compound of Example 2 was used as a test substance for investigating its effect on myocardial infarction due to reperfusion following ligation of the rabbit coronary artery. Male NZW rabbits (weighing 2.83 to 3.20 kg) were purchased from Kitayama Labes, Co. Ltd., and bred and raised under the conditions: room temperature 20-26° C., humidity 40-70%, and illumination time 12 hours/day (7-19:00). The animals were allowed food and water ad libitum, and quarantined and acclimatized for 2 weeks or more. Then, the animals in good health were used. The above rabbits were administered 10 mg/kg of the compound of Example 2 through the jugular vein under anesthesia, and then the compound of Example 2 was continuously infused in a dose of 6.9 micro g/kg/min. In a control group, physiological saline (hereinafter referred to as PS) was administered in the same manner as in the experimental group. Then, coronary artery was ligated for 30 minutes, whereafter the ligature was released for reperfusion, and the blood pressure in the carotid artery, the pulse rate and the number of arrhythmias were measured. The carotid arterial blood pressure and pulse rate were measured before administration, during continuous intravenous infusion, during the ligation period (15 minute later and 30 minutes later), and during reperfusion. The carotid arterial blood pressure was calculated as mean blood pressure. The number of arrhythmias was counted as the number of extrasystoles that appeared during the ligation period (for 30 minutes) or during reperfusion. After 3 hours of reperfusion, the heart was removed, and sliced into 6 pieces. The living tissues were stained with 2,3,5-triphenyltetrazolium […] (TTC), the area of the infarct due to ligation was measured, and the percent of the infarct with respect to the area of the left ventricle was calculated.

[3] = tested on: endothelial cell-neutrophil interaction; test: Anti-inflammatory tests using pseudo-blood vessel model (neutrophil transmigration and adhesion); assay type: cell-based, bovine; conditions: for neutrophil transmigration and adhesion: 0.1 and 1 microM compound, 10 microM AHOP in lower compartment, FIG. 4
Description: Transwells were used, each consisting of an upper compartment separated from a lower compartment by a porous membrane. A single layer of bovine endothelial cells was cultured on the porous membrane at the bottom surface of the transwell upper compartment. A suspension of fluorescence-labeled neutrophils was added to the transwell upper compartment, and AHOP was suspended within the lower compartment to an end concentration of 0.1 to 10 microM. That is, a pseudo-blood vessel in vitro inflammation model was thus constructed in which the upper compartment and the lower compartment of the transwell were isolated from each other via the endothelial layer, and the upper compartment corresponded to the interior of a blood vessel, while the lower compartment corresponded to the site of inflammation outside the blood vessel. Measurements were made of the number of the neutrophils passing from the upper compartment into the lower compartment through the endothelial layer, and the number of the neutrophils adhering to the endothelial layer. […] That is, AHOP was considered to act as an inflammation-inducing substance.
That is, the compound of Example 2 or 3 was added in an amount of 0.01 to 1 microM to the upper compartment or lower compartment of the transwell, and 10 microM AHOP was placed in the lower compartment to induce inflammation. As a control, inflammation was induced in the same way as above but without addition of any compounds of the invention.
Measurements were made of the number of the neutrophils passing from the upper compartment into the lower compartment through the endothelial layer, and the number of the neutrophils adhering to the endothelial layer. A relative neutrophil count (%) was calculated from the following equation:
Relative neutrophil count (%)=[number of neutrophils (passing and adhering) in the experimental group]/[number of neutrophils (passing and adhering) in the control]×100

Edg receptor = Edg receptor response test (intracellular Ca^2+ increase by AHOP in HL60 cells); assay type: cell-based; conditions: for concentration at which the Ca^2+ concentration increase by AHOP was dose-dependently suppressed / increase in the intracellular Ca^2+ concentration by the addition of AHOP: HL60 cells; for concentration at which the Ca^2+ concentration increase by AHOP was dose-dependently suppressed: AHOP 1 μM, FIG. 1; for increase in the intracellular Ca^2+ concentration by the addition of AHOP: test substance 30 μM, then AHOP 1 μM
Description: HL 60 cells were obtained from a cell bank, and subcultured for about 50 passages over a half-year period in accordance with the method described in BBRC '98, 263, p. 253 using an RPMI-1640 culture medium (Gibco) containing 10% fetal bovine serum to prepare a premyeloblastoma cell strain HL60 expressing Edg receptors on the cell surface. Using the premyeloblastoma cell strain HL60 expressing Edg receptors on the cell surface, the cell response of test substances was investigated. An increase in the intracellular Ca^2+ concentration was measured as an indicator of cell response. It is reported that when the Edg receptor on the HL60 cell surface is bound to AHOP, it phosphorylates G protein to activate IP3 kinase, whereafter the intracellular Ca^2+ concentration increases (FEBS Letter '96, 379, p. 260, BBRC '98, 253, p. 253). Thus, the intracellular Ca^2+ concentration serves as an indicator of Edg receptor response.
A Ca^2+ chelating reagent, Fura-2AM, was taken into HL60 cells.
A cell suspension (1.2 ml) was charged into a quartz cell, which was then mounted on a fluorometer LS50B (Perkin Elmer, for cell measurement). An excitation wavelength was alternately switched between 340 nm (exciting Fura-2 having chelated Ca^2+) and 380 nm (exciting unreacted Fura-2) at intervals of 0.5 milli second, and fluorescence intensity at 510 nm was measured.
Each test substance was added at an end concentration of 30 μM by means of a microsyringe, and then fluorescence intensity was traced to investigate whether Ca^2+ would increase or not. It was also confirmed whether Ca^2+ would increase or not when AHOP (1 μM) was added after addition of the test substance. Through these tests, the AHOP antagonism of each substance was studied.
Suramin, already confirmed to have antagonistic action, was used as a comparison. The experimental procedure was the same as described above, except that AHOP (1 μM) was added after addition of the test substance at varying concentration. An increase in the Ca^2+ concentration was evaluated by an increased Ca^2+ concentration (%) as a value relative to the increased Ca^2+ concentration in a negative control group (no drug added).

cancer cell strain F10 = conditions: F10 cells; AHOP concentration of 10^−8 to 10^−6 M; maximum; cited from earlier work
[4] = rabbit acute myocardial infarction models
[5] = rabbit, 10 mg/kg jugular vein then 6.9 micro g/kg/min infusion
[6] = rabbit, 10 mg/kg then 6.9 micro g/kg/min, ligation 15 min
[7] = rabbit, 10 mg/kg then 6.9 micro g/kg/min, ligation 30 min
[8] = rabbit, 10 mg/kg then 6.9 micro g/kg/min, reperfusion 180 min
[9] = rabbit, baseline before administration

Q: Which results are given for CCCCCCCCCCCCCC[C@H](O)C(=O)N[C@H](CO)[C@@H](O)/C=C/CC/C=C(\C)CCCCCCCCC [Example 2, (4E,8E,2R,3S,2′S)-N-2′-hydroxyhexadecanoyl-9-methyl-4.8-octadecadiene-1,3-diol]?
A: competition with ^3H-AHOP (Edg receptors): competitive with ^3H-AHOP; inhibition of binding of ^3H-AHOP (to HL60 cells) (Edg receptors): Dose-dependent inhibition; concentrations at which vascular smooth muscle growth was inhibited [1]: 0.3 to 3 µM; ligation-associated decrease in pulse rate (in words) [2, 4]: tended to inhibit; number of arrhythmias due to ligation (in words) [2, 4]: reduce the number of arrhythmias due to ligation; percent area of the infarct (in words) [2, 4]: tendency toward decreasing; Mean blood pressure, continued i.v. infusion [2, 5]: 74 ± 9 mmHg; Pulse rate, continued i.v. infusion [2, 5]: 283 ± 10 beats/min; Mean blood pressure, ligation 15 min [2, 6]: 59 ± 10 mmHg; Pulse rate, ligation 15 min [2, 6]: 270 ± 9 beats/min; Mean blood pressure, ligation 30 min [2, 7]: 66 ± 8 mmHg; Pulse rate, ligation 30 min [2, 7]: 282 ± 4 beats/min; Mean blood pressure, reperfusion 180 min [2, 8]: 68 ± 4 mmHg; Pulse rate, reperfusion 180 min [2, 8]: 256 ± 10 beats/min; Infarct/left ventricle (percent area of the infarct) ([2]; rabbit, after 3 hours of reperfusion, TTC staining): 14.0 ± 2.1%; Mean blood pressure, before administration [2, 9]: 83 ± 4 mmHg; Pulse rate, before administration [2, 9]: 301 ± 9 beats/min; number of arrhythmias, reperfusion ([2]; rabbit, extrasystoles during reperfusion): 17 ± 6; number of arrhythmias, ligation ([2]; rabbit, extrasystoles during the ligation period (30 minutes)): 12 ± 5; neutrophil transmigration and adhesion [3]: suppressed; strength of the action in comparison with suramin (ED50) (Edg receptor; ED50 for intracellular Ca^2+ increase): about 40 times; concentration at which the Ca^2+ concentration increase by AHOP was dose-dependently suppressed (Edg receptor): 0.03 to 0.3 µM; increase in the intracellular Ca^2+ concentration by the addition of AHOP (Edg receptor): inhibited

Q: Which results are given for CCCCCCCCCCCCCCC(O)C(=O)N[C@@H](CO)[C@H](O)/C=C/CCCC(C)CCCCCCCCC (stereo partly drawn) [Example 3, (4E,2S,3R,2′RS)-N-2′-hydroxyhexadecanoyl-9-methyl-4-octadecene-1,3-diol]?
A: competition with ^3H-AHOP (Edg receptors): competitive with ^3H-AHOP; inhibition of binding of ^3H-AHOP (to HL60 cells) (Edg receptors): Dose-dependent inhibition; concentrations at which vascular smooth muscle growth was inhibited [1]: 1 to 10 µM; neutrophil transmigration and adhesion [3]: suppressed; concentration at which the Ca^2+ concentration increase by AHOP was dose-dependently suppressed (Edg receptor): 0.3 to 3 µM; increase in the intracellular Ca^2+ concentration by the addition of AHOP (Edg receptor): inhibited; melting point: 52 to 57 °C

Q: With CCCCCCCCCCCCCC[C@H](O)C(=O)N[C@H](CO)[C@@H](O)/C=C/CC/C=C(\C)CCCCCCCCC [Example 1, (4E,8E,2R,3S,2′S)-N-2′-hydroxyhexadecanoyl-9-methyl-4,8-octadecadiene-1,3-diol] as the compound, how does the melting point read?
A: The melting point was 62 to 63 °C.

Q: For CCCCCCCCCCCCCC=CC(O)C(N)COP(=O)(O)O (stereo not drawn) [AHOP, 2-amino-3-hydroxy-4-octadecene-1-phosphate, reference compound], which “transmigration through the endothelial layer and adhesion of the neutrophils (inflammation-inducing action)” value ([3]; AHOP 10 microM in lower compartment) is on record?
A: The value was “promoted significantly”.

Q: What about the suppression of migration (cancer cell strain F10) of the same compound?
A: Its suppression of migration is ~80%.
